pEC50: −log10 of the molar value. Read-outs that look alike come from different tables or passages of the source.

One data set addresses T1, human GLP-1 receptor (Homo sapiens, UniProt P43220).
T1 construct: host or cells: CHO-K1
The experiment in a line: cAMP activity test (cAMP dynamic HTRF kit) in CHO-K1/GLP-1 receptor-expressing cells. It is filed as cell-based. Here is the method: The next day, the medium was removed, and a 50 uL of HBSS medium containing 0.1% BSA, 0.5 mM IBMX, and 5 mM HEPES was added to each well. […] The cAMP activity was measured according to the manufacturer's instructions using the cAMP dynamic HTRF kit (Cisbio, 62AM4PEC). After incubation, the medium was discarded, and the cells were lysed. cAMP-d2 and anti-cAMP cryptate conjugate were added thereto and reacted for 3 hours. […] Intracellular cAMP competes with cAMP-d2 for anti-cAMP cryptate, and the measured signal of fluorescence resonance energy transfer (FRET) is inversely proportional to intracellular cAMP.
Background: Time-resolved FRET reads energy transfer from a long-lived donor to a nearby acceptor.

Another data set addresses T2, hERG (Homo sapiens, UniProt Q12809).
T2 construct: purchased Invitrogen PV5365
The experiment in a line: hERG inhibition test (Predictor hERG Fluorescence Polarization assay kit). It is filed as binding. To be noted: probe kit Tracer (fluorescent hERG ligand), hERG % inhibition at 10 uM, relative to E-4031 and solvent control. As for the experimental part:
To measure the hERG (Human ether-a-go-go-related gene) channel inhibition rate of the compound according to the present invention, the following test was performed using a Predictor hERG Fluorescence Polarization assay kit (Invitrogen, PV5365).
Specifically, a test substance was dissolved in DMSO to prepare a 50 mM solution. A 4 mM solution was prepared by diluting the 50 mM solution with DMSO in a U bottom 96-well plate (SPL, 34096), and was then diluted 100-fold with a test buffer to prepare a 40 uM (4×) solution. The positive control E-4031 (3 mM) provided in the kit was diluted 25-fold with a test buffer to prepare a 120 uM solution) 5 uL of the diluted test substance solution was dispensed into a 384-well assay plate (corning, 3677). hERG Membrane (2×) and Tracer (4×) provided in the kit were respectively added at 10 uL and 5 uL, and then subjected to the reaction at room temperature for 2.5 hours. After completion of the reaction, fluorescence polarization (mP) was measured with a Multimode Plate Reader (Perkin-Elmer, Envision) (excitation wavelength of 531 nm, and emission wavelength 579 nm). The value of the percent inhibitory activity (% inhibition) at 10 uM of each test substance was calculated by the following equation, and the results are shown in Table 2: (% inhibition)=100−{(mP of the compound according to the present invention−E-4031 mP)/(mP of the solvent control−E-4031 mP)}×100

The mark [1] stands for this setting: cAMP activity, CHO-K1/GLP-1 receptor-expressing cells, read-out: EC50.

T1 sequence (P43220 24-463): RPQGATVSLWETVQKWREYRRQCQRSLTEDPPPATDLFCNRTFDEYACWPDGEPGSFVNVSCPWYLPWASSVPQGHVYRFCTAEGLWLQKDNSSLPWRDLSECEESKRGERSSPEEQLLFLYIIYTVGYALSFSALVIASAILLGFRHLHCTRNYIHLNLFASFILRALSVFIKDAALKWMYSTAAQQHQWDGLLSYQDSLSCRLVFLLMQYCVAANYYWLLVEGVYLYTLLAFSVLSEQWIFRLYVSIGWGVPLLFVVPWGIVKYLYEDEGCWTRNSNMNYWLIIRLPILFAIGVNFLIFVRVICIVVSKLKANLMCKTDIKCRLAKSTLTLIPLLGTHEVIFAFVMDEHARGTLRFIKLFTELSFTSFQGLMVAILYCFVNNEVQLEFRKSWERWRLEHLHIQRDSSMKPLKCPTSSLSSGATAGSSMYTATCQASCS
T2 sequence (Q12809 whole entry): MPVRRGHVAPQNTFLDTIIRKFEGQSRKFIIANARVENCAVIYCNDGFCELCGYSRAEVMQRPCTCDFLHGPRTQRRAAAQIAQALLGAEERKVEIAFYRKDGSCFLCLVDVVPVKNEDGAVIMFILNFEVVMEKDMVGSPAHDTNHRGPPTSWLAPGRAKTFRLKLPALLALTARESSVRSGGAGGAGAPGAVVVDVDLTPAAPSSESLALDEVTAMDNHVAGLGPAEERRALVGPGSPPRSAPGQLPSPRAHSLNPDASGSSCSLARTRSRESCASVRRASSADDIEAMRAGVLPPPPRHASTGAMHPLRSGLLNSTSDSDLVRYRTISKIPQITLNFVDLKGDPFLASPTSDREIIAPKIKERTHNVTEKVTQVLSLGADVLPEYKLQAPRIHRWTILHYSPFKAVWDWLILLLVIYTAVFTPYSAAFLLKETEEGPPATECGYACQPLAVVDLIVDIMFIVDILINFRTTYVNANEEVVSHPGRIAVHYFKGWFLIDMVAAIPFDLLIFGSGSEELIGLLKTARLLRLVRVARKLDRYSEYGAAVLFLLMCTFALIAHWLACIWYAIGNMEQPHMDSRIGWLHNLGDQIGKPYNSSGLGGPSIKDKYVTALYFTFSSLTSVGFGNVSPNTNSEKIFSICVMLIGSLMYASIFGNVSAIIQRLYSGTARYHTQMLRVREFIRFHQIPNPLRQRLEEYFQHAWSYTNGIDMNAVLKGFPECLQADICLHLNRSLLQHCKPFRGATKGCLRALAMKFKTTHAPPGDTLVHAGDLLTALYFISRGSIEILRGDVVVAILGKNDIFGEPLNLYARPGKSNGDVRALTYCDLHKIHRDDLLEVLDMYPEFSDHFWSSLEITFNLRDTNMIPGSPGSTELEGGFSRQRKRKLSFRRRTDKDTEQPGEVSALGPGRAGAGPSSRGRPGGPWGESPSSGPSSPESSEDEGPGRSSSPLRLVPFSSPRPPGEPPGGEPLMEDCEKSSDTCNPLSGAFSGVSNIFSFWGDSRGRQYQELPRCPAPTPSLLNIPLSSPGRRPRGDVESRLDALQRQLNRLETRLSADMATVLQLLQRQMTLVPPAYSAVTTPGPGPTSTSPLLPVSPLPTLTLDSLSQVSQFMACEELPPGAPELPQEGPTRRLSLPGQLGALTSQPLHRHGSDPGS

What is called pEC50 is −log10 of the EC50, conventionally taken in molar units. As a reminder, the inhibition is the change of the read-out against control, counted positive when it falls. In the case of `N#Cc1ccc(COc2cccc(-c3ccn(Cc4nc5ccc(C(=O)O)cc5n4C[C@@H]4CCCO4)c(=O)c3)n2)c(F)c1` [Example 109, (S)-2-((4-(6-(4-cyano-2-fluorobenzyloxy)pyridin-2-yl)-2-oxopyridin-1(2H)-yl)methyl)-1-((tetrahydrofuran-2-yl)methyl)-1H-benzo[d]imidazole-6-carboxylic acid], the pEC50 at human GLP-1 receptor (setting [1]) is 6.89. Further, the inhibition at 2.5 h, 10 µM on hERG is 6.49%.

As to `O=C(O)c1ccc2nc(Cc3ccc(-c4cccc(OCc5ccc(Cl)cc5F)c4)cc3F)n(Cc3cnco3)c2c1` [Example 32, 2-((3′-(4-chloro-2-fluorobenzyloxy)-3-fluorobiphenyl-4-yl)methyl)-1-(oxazol-5-ylmethyl)-1H-benzo[d]imidazole-6-carboxylic acid], the pEC50 at human GLP-1 receptor (setting [1]) was 7.49. In addition, at hERG, the inhibition at 2.5 h, 10 µM was -11.7%.

Take `O=C(O)c1ccc2nc(Cc3ccc(-c4cccc(OCc5ccc(Cl)cc5F)c4)cc3F)n(CCF)c2c1` [Example 56, 2-((3′-(4-chloro-2-fluorobenzyloxy)-3-fluorobiphenyl-4-yl)methyl)-1-(2-fluoroethyl)-1H-benzo[d]imidazole-6-carboxylic acid]: the pEC50 at human GLP-1 receptor (setting [1]) was 6.10. Besides, the inhibition at 2.5 h, 10 µM at hERG is 0.83%.

As to `O=C(O)c1ccc2nc(Cc3ccc(-c4cccc(OCc5ccc(Cl)cc5F)c4)c(F)c3)n(Cc3cnco3)c2c1` [Example 33, 2-((3′-(4-chloro-2-fluorobenzyloxy)-2-fluorobiphenyl-4-yl)methyl)-1-(oxazol-5-ylmethyl)-1H-benzo[d]imidazole-6-carboxylic acid], the pEC50 at human GLP-1 receptor (setting [1]) was 7.22. For the same compound, at hERG, the inhibition at 2.5 h, 10 µM is -9.08%.

In the case of `O=C(O)c1ccc2nc(Cc3ccc(-c4cccc(OCc5ccc(Cl)cc5F)n4)cc3F)n(C[C@@H]3CCCO3)c2c1` [Example 59, (S)-2-(4-(6-(4-chloro-2-fluorobenzyloxy)pyridin-2-yl)-2-fluorobenzyl)-1-((tetrahydrofuran-2-yl)methyl)-1H-benzo[d]imidazole-6-carboxylic acid], the negative-log EC50 (pEC50) at human GLP-1 receptor (setting [1]) is 8.24. At hERG, the inhibition at 2.5 h, 10 µM is -21%.

As for `COCCn1c(Cc2c(F)cc(-c3cccc(OCc4ccc(Cl)cc4F)c3)cc2F)nc2ccc(C(=O)O)cc21` [Example 48, 2-((3′-(4-chloro-2-fluorobenzyloxy)-3,5-difluorobiphenyl-4-yl)methyl)-1-(2-methoxyethyl)-1H-benzo[d]imidazole-6-carboxylic acid], the pEC50 on human GLP-1 receptor (setting [1]) was 7.38. The inhibition at 2.5 h, 10 µM on hERG is 14.3%.

Take `O=C(O)c1ccc2nc(Cc3ccc(-c4cccc(OCc5cc(F)cc(Cl)c5)n4)c(F)c3)n(CC3CCCO3)c2c1` (stereo not shown) [Example 100, 2-(4-(6-(3-chloro-5-fluorobenzyloxy)pyridin-2-yl)-3-fluorobenzyl)-1-((tetrahydrofuran-2-yl)methyl)-1H-benzo[d]imidazole-6-carboxylic acid]: the pEC50 on human GLP-1 receptor (setting [1]) is 6.49. The inhibition at 2.5 h, 10 µM at hERG was -10.2%.

Turning to `O=C(O)c1ccc2nc(Cc3ccc(-c4cccc(OCc5ccc(Cl)cc5F)n4)c(F)c3)n(C[C@H]3CCCO3)c2c1` [Example 52, (R)-2-(4-(6-(4-chloro-2-fluorobenzyloxy)pyridin-2-yl)-3-fluorobenzyl)-1-((tetrahydrofuran-2-yl)methyl)-1H-benzo[d]imidazole-6-carboxylic acid], at human GLP-1 receptor (setting [1]), the pEC50 was 6.96. In addition, the inhibition at 2.5 h, 10 µM on hERG was 24.2%.

On to `COCCn1c(Cc2ccc(-c3cccc(COc4ccc(Cl)cc4F)n3)cc2[N+](=O)[O-])nc2ccc(C(=O)O)cc21` [Example 7, 2-(4-(6-((4-chloro-2-fluorophenoxy)methyl)pyridin-2-yl)-2-nitrobenzyl)-1-(2-methoxyethyl)-1H-benzo[d]imidazole-6-carboxylic acid], for which the pEC50 at human GLP-1 receptor (setting [1]) was 5.70. In addition, the inhibition at 2.5 h, 10 µM on hERG is 1.63%.

Turning to `O=C(O)c1ccc2nc(Cc3ccc(-c4cccc(OCc5ccc(C(F)(F)F)cc5)n4)cc3F)n(CC3CCCO3)c2c1` (stereo not shown) [Example 77, 2-(2-fluoro-4-(6-(4-(trifluoromethyl)benzyloxy)pyridin-2-yl)benzyl)-1-((tetrahydrofuran-2-yl)methyl)-1H-benzo[d]imidazole-6-carboxylic acid], at human GLP-1 receptor (setting [1]), the pEC50 was 7.55. Further, the inhibition at 2.5 h, 10 µM on hERG was -70.9%.

Turning to `O=C(O)c1ccc2nc(Cn3ccc(-c4cccc(OCc5ccc(Cl)cc5F)n4)cc3=O)n(C[C@@H]3CCO3)c2c1` [Example 110, (S)-2-((6-((4-chloro-2-fluorobenzyl)oxy)-2′-oxo-[2,4′-bipyridin]-1′(2′H)-yl)methyl)-1-(oxetan-2-ylmethyl)-1H-benzo[d]imidazole-6-carboxylic acid], the pEC50 on human GLP-1 receptor (setting [1]) is 7.80. Besides, on hERG, the inhibition at 2.5 h, 10 µM was 7.61%.

On to `N#Cc1ccc(COc2cccc(-c3ccc(Cc4nc5ccc(C(=O)O)cc5n4C[C@H]4CCCO4)cc3F)c2)c(F)c1` [Example 47, (R)-2-((3′-(4-cyano-2-fluorobenzyloxy)-2-fluorobiphenyl-4-yl)methyl)-1-((tetrahydrofuran-2-yl)methyl)-1H-benzo[d]imidazole-6-carboxylic acid], for which the pEC50 on human GLP-1 receptor (setting [1]) was 5.89. Besides, the inhibition at 2.5 h, 10 µM at hERG is -17.1%.

As for `Cc1cc(-c2cccc(OCc3ccc(C#N)cc3F)n2)ccc1Cc1nc2ccc(C(=O)O)cc2n1C[C@@H]1CCO1` [Example 133, (S)-2-(4-(6-((4-cyano-2-fluorobenzyl)oxy)pyridin-2-yl)-2-methylbenzyl)-1-(oxetan-2-ylmethyl)-1H-benzo[d]imidazole-6-carboxylic acid], the pEC50 on human GLP-1 receptor (setting [1]) is 7.85. Besides, the inhibition at 2.5 h, 10 µM at hERG is 41%.

With `COCCn1c(Cc2ccc(-c3cccc(OCc4ccc(C#N)cc4F)n3)c(F)c2)nc2ccc(C(=O)O)cc21` [Example 38, 2-(4-(6-(4-cyano-2-fluorobenzyloxy)pyridin-2-yl)-3-fluorobenzyl)-1-(2-methoxyethyl)-1H-benzo[d]imidazole-6-carboxylic acid], the pEC50 at human GLP-1 receptor was 6.85. Moreover, the inhibition at 2.5 h, 10 µM on hERG is 9.5%.

On to `O=C(O)c1ccc2nc(Cc3ccc(-c4cccc(OCc5cccnc5)n4)c(F)c3)n(C[C@@H]3CCO3)c2c1` [Example 129, (S)-2-(3-fluoro-4-(6-(pyridin-3-ylmethoxy)pyridin-2-yl)benzyl)-1-(oxetan-2-ylmethyl)-1H-benzo[d]imidazole-6-carboxylic acid], for which the pEC50 on human GLP-1 receptor (setting [1]) is 6.31. Besides, at hERG, the inhibition at 2.5 h, 10 µM was -6.27%.

For the compound `O=C(O)c1ccc2nc(Cc3ccc(-c4ccc(F)c(OCc5ccc(Cl)cc5F)c4)cn3)n(CC3CCCO3)c2c1` (stereo not shown) [Example 102, 2-((5-(3-(4-chloro-2-fluorobenzyloxy)-4-fluorophenyl)pyridin-2-yl)methyl)-1-((tetrahydrofuran-2-yl)methyl)-1H-benzo[d]imidazole-6-carboxylic acid], on human GLP-1 receptor (setting [1]), the pEC50 was 6.34. The inhibition at 2.5 h, 10 µM on hERG was -31.9%.

Take `CCn1cncc1Cn1c(Cc2ccc(-c3cccc(OCc4ccc(Cl)cc4F)n3)cc2F)nc2ccc(C(=O)O)cc21` [Example 72, 2-(4-(6-(4-chloro-2-fluorobenzyloxy)pyridin-2-yl)-2-fluorobenzyl)-1-((1-ethyl-1H-imidazole-5-yl)methyl)-1H-benzo[d]imidazole-6-carboxylic acid]: the pEC50 at human GLP-1 receptor (setting [1]) was over 8.49. Besides, at hERG, the inhibition at 2.5 h, 10 µM was -5.75%.

`N#Cc1ccc(COc2cccc(-c3ccc(Cc4nc5ccc(C(=O)O)cc5n4Cc4ccco4)c(F)c3)n2)c(F)c1` [Example 19, 2-(4-(6-(4-cyano-2-fluorobenzyloxy)pyridin-2-yl)-2-fluorobenzyl)-1-(furan-2-ylmethyl)-1H-benzo[d]imidazole-6-carboxylic acid]: the pEC50 on human GLP-1 receptor (setting [1]) is 7.40. Also, the inhibition at 2.5 h, 10 µM on hERG was 1.8%.

Regarding `O=C(O)c1ccc2nc(Cc3cc(F)c(-c4cccc(OCc5ccc(Cl)cc5F)n4)cc3F)n(CC3CCCO3)c2c1` (stereo not shown) [Example 70, 2-(4-(6-(4-chloro-2-fluorobenzyloxy)pyridin-2-yl)-2,5-difluorobenzyl)-1-((tetrahydrofuran-2-yl)methyl)-1H-benzo[d]imidazole-6-carboxylic acid], the pEC50 on human GLP-1 receptor (setting [1]) was over 8.49. For the same compound, on hERG, the inhibition at 2.5 h, 10 µM was -6.14%.

For the compound `O=C(O)c1ccc2nc(Cc3ccc(-c4cccc(OCc5ccc(Cl)cc5F)n4)c(F)c3)n(Cc3cccs3)c2c1` [Example 50, 2-(4-(6-(4-chloro-2-fluorobenzyloxy)pyridin-2-yl)-3-fluorobenzyl)-1-(thiophen-2-ylmethyl)-1H-benzo[d]imidazole-6-carboxylic acid], the pEC50 on human GLP-1 receptor (setting [1]) was 7.82. At hERG, the inhibition at 2.5 h, 10 µM was 4.72%.

The values are drawn from patent publication US12421205B2, “GLP-1 receptor agonist” (HYUNDAI PHARM CO., LTD., priority 2019, dated 2025).
